Measurements from patent US5608084A, “Lactones with antioxidising and hypolipidaemic activity useful in the therapy of the atherosclerosis” (priority 1994, dated 1997).
Read-outs that look alike come from different tables or passages of the source.

Tests used:
HepG2 = test: Incorporation of 14C-acetate in the lipidic classes in HepG2 cells (hypolipidaemic activity); type: cell-based, human; details: for Incorporation of 14C-acetate: Cholesterol / Incorporation of 14C-acetate: Esters of Cholesterol / Incorporation of 14C-acetate: Fatty acids / Incorporation of 14C-acetate: Phospholipids / Incorporation of 14C-acetate: Triglycerides: per culture plate; for inhibition at 1 µM / inhibition at 10 µM: Homo sapiens, HepG2; for activity as regards the synthesis of the esters of the cholesterol: summary of Table 4; for interference with the synthesis of cholesterol: compared with gemfibrozil and probucol; for influence on the synthesis of the fatty acids and of the phospholipids: compared with probucol and gemfibrozil
Description: The hypolipidaemic activity of some lactones of general formula I has been evaluated in vitro by testing their influence on the synthesis of the cell lipids like cholesterol, fatty acids, triglycerides, phospholipids and esters of the cholesterol, described by Barnhard J. W. in Amer. J. Cardiol., 62, 52B-56B, (1988).
The synthesis of the lipids has been studied by incubating cells coming from a human hepatocarcinoma (HepG2-American Type Culture Collection) in presence of ^14 C-acetate (Amersham) and by measuring the incorporation of the radioactive precursor in the main lipidic classes by means of chromatographic separation on silica gel (Merck F254), according to the method described by Skipski V. P. et al. in Biochem. Biophys. Acta, 106, 386-396, (1965) and by means of scintillographic dosage with β-counter Beckman scintillator, according to the method reported by Gherardi E. and Calandra S. in Lipids, 15, 108-112, (1980).
The data reported in tables 4 and 5 refer to the incorporation of ^14 C-acetate in the various lipidic classes, expressed as radioactivity in count per minute (cpm) for culture plate, for some lactones, in comparison with the probucol and the gemfibrozil, used as positive controls and with the solvent ethanol, used as negative control.
The percents in brackets express the lowering of the ^14 C-acetate in the various lipidic classes referred to the control, i.e. to the physiological solution. […] The confluence cells have been exposed to the products tested for 24 hours; at the end of the incubation the monolayer has been solubilized and the optical density of the lysate at λ260 nm has been measured. The value of the absorbance is direct function of the amount of the macromolecules present and therefore indirectly of the number of the cells.

B-100 apolipoprotein = test: Fragmentation of B-100 apolipoprotein on SDS-PAGE (oxidative modification of LDL); type: biochemical, human; details: 10 μM
From the text: The determination of the melting point has been carried out by means of a capillary melting point apparatus Electrothermal, without any correction. The I.R. spectrum has been obtained by means of a Perkin-Elmer rood. 963/G spectrophotometer generally, when not otherwise specified, preparing the specimen in potassium bromide and recording the spectrum between 4000 and 600 nm. […] The mass spectrum has been recorded by using a VG 7070E mass spectrometer, at a 70 eV ionization voltage and with a 6 Kvolt acceleration voltage. […] Chem., 43, 2923, (1978). […] The antioxidant activity has been evaluated through the capability of some lactones of formula I to prevent and/or delay the oxidative modification of the lipoproteins (LDL), caused by a chemical method by incubating native LDL with cupric ions, according to the method described by Steinbrecher U. P. in J. Biol. Chem., 262, 3603-3608, (1987). The evaluation of the oxidation degree of the LDL through the monitoring of the concentration of aldehydes derived from the degradation of the lipidic peroxides and the observation of the modifications of the B-100 apolipoprotein represent the used experimental approach. The antioxidant activity of the lactones has been expressed in terms of duration of the latency period that represents a parameter of the resistance to the oxidation of the LDL. The LDL have been isolated from the human plasma obtained from blood collected, in the presence of EDTA, from healty volunteers fasting from 8 hours according to the method described by Havel H. in J. Clin. Invest., 34, 1345-1353, (1955). The solution, dialyzed in Visking-Serva dialysis tubes at 4° C. for 72 hours in phosphate buffer (PBS) added with EDTA (0.24 mM), has been filtered through a membrane with 0.45μ porosity (Millex HV Filters) and the proteic concentration has been determined according to the method described by Lowry O. et al. in J. Biol. Chem., 193, 265-275, (1951). The solution has been diluted with PBS-EDTA at a concentration of 500 μg protein/ml and the obtained LDL have been incubated at 42° C. for 45 minutes in presence of the lactones solubilized in ethanol (1.7 μl/ml LDL). At the end of the incubation the solutions have been placed on ice for 45 minutes and dialyzed at 4° C. for 36 hours in PBS. The oxidation of the LDL has been carried out with 5 μM cupric sulfate at 37° C. and stopped at the experimental times by cooling at 4° C. and adding 0.24 mM of EDTA. The solutions of LDL have been kept at 4° C. and sheltered from light during the experimental procedure. […] 52, (1978).
The inhibition of the oxidative process has been evaluated also by means of the study of the fragmentation of the B-100 apolipoprotein through the electrophoretic analysis on polyacrylamide gel in presence of sodium dodecylsulfate (SDS-PAGE), according to the method described by Laemmli U. K., in Nature, 227, 680, (1970). The quantitative evaluation of the disappearance of the B-100 apolipoprotein has been carried out by densitometric unidimensional measurement of the absorbance at λ=633nm, on an electrophoretic plate 13.5 cm long, after colouring with Coomassie Brillant Blue. The reagents used for the preparation and coloration of the gels, the reference standard (SDS-PAGE standards Broad Range--Cat. no. 161-0317), the gradient former (gradient former Bio-Rad Mod. 385) and the electrophoretic cell (Protean II) are Bio-Rad products; the feeder is a LKB Pharmacia Mod. 2197, the densitometer is a Pharmacia LKB Mod. 2222-020 Ultrascan XL with integrators LKB 2220 and LKB 2190 GelScan Software Package.

[1] = 1 μM, read-out: Incorporation of 14C-acetate: Cholesterol, percent referred to physiological solution
[2] = 1 μM, read-out: Incorporation of 14C-acetate: Esters of Cholesterol, percent referred to physiological solution
[3] = 1 μM, read-out: Incorporation of 14C-acetate: Fatty acids, percent referred to physiological solution
[4] = 1 μM, read-out: Incorporation of 14C-acetate: Phospholipids, percent referred to physiological solution
[5] = 1 μM, read-out: Incorporation of 14C-acetate: Triglycerides, percent referred to physiological solution
[6] = 10 μM, read-out: Incorporation of 14C-acetate: Cholesterol, percent referred to physiological solution
[7] = 10 μM, read-out: Incorporation of 14C-acetate: Esters of Cholesterol, percent referred to physiological solution
[8] = 10 μM, read-out: Incorporation of 14C-acetate: Fatty acids, percent referred to physiological solution
[9] = 10 μM, read-out: Incorporation of 14C-acetate: Phospholipids, percent referred to physiological solution
[10] = 10 μM, read-out: Incorporation of 14C-acetate: Triglycerides, percent referred to physiological solution

Compound | Incorporation of 14C-acetate: Cholesterol (HepG2; 1 μM) | Incorporation of 14C-acetate: Esters of Cholesterol (HepG2; 1 μM) | Incorporation of 14C-acetate: Fatty acids (HepG2; 1 μM) | Incorporation of 14C-acetate: Phospholipids (HepG2; 1 μM) | Incorporation of 14C-acetate: Triglycerides (HepG2; 1 μM) | Incorporation of 14C-acetate: Cholesterol (HepG2; 10 μM) | Incorporation of 14C-acetate: Esters of Cholesterol (HepG2; 10 μM) | Incorporation of 14C-acetate: Fatty acids (HepG2; 10 μM) | Incorporation of 14C-acetate: Phospholipids (HepG2; 10 μM) | Incorporation of 14C-acetate: Triglycerides (HepG2; 10 μM) | inhibition at 1 µM (HepG2; [1]) | inhibition at 1 µM (HepG2; [2]) | inhibition at 1 µM (HepG2; [3]) | inhibition at 1 µM (HepG2; [4]) | inhibition at 1 µM (HepG2; [5]) | inhibition at 10 µM (HepG2; [6]) | inhibition at 10 µM (HepG2; [7]) | inhibition at 10 µM (HepG2; [8]) | inhibition at 10 µM (HepG2; [9]) | inhibition at 10 µM (HepG2; [10]) | other results
CC(C)(Sc1cc(C(C)(C)C)c(O)c(C(C)(C)C)c1)Sc1cc(C(C)(C)C)c(O)c(C(C)(C)C)c1 [Probucol, reference compound] | 14360 cpm | 1887 cpm | 429 cpm | 173426 cpm | 100202 cpm | 11389 cpm | 2635 cpm | 394 cpm | 173329 cpm | 105097 cpm | 55% | 54% | 36% | 31% | 8% | 64% | 35% | 42% | 31% | 3% | activity as regards the synthesis of the esters of the cholesterol (HepG2): 35-45%; Area of the B-100 apolipoprotein peak (B-100 apolipoprotein; 0 minutes): 2.7 AU/mm; Area of the B-100 apolipoprotein peak (B-100 apolipoprotein; 60 minutes): 1.8 AU/mm; Area of the B-100 apolipoprotein peak (B-100 apolipoprotein; 90 minutes): 1.6 AU/mm; Area of the B-100 apolipoprotein peak (B-100 apolipoprotein; 120 minutes): 0.9 AU/mm; Area of the B-100 apolipoprotein peak (B-100 apolipoprotein; 150 minutes): 0.9 AU/mm; Area of the B-100 apolipoprotein peak (B-100 apolipoprotein; 180 minutes): 0.6 AU/mm; Area of the B-100 apolipoprotein peak (B-100 apolipoprotein; 360 minutes): 0.3 AU/mm
Cc1c(C)c2c(c(C)c1O)CCC(C)OC(=O)C(C)(C)CCCO2 (stereo not drawn) [Example 3, 6,6,9,13,15,16-Hexamethyl-14-hydroxy-2,8-dioxabicyclo[10.4.0]hexadec-12,14,16-trien-7-one] | 23364 cpm | 1347 cpm | 473 cpm | 181053 cpm | 109681 cpm | 19034 cpm | 1107 cpm | 368 cpm | 195274 cpm | 104271 cpm | 26% | 67% | 29% | 27% | 1% | 40% | 73% | 45% | 22% | 4% | influence on the synthesis of the triglycerides (HepG2): practically absent; interference with the synthesis of cholesterol (HepG2): comparable to that of gemfibrozil and lower than that of the probucol; influence on the synthesis of the fatty acids and of the phospholipids (HepG2): practically show the same influence; activity as regards the synthesis of the esters of the cholesterol (HepG2): 60-75%; Area of the B-100 apolipoprotein peak (B-100 apolipoprotein; 0 minutes): 2.2 AU/mm; Area of the B-100 apolipoprotein peak (B-100 apolipoprotein; 60 minutes): 2.0 AU/mm; Area of the B-100 apolipoprotein peak (B-100 apolipoprotein; 90 minutes): 1.9 AU/mm; Area of the B-100 apolipoprotein peak (B-100 apolipoprotein; 120 minutes): 1.6 AU/mm; Area of the B-100 apolipoprotein peak (B-100 apolipoprotein; 150 minutes): 1.5 AU/mm; Area of the B-100 apolipoprotein peak (B-100 apolipoprotein; 180 minutes): 1.5 AU/mm; Area of the B-100 apolipoprotein peak (B-100 apolipoprotein; 360 minutes): 1.5 AU/mm
CCC1CCc2c(C)c(O)c(C)c(C)c2OCCCC(C)(C)C(=O)O1 (stereo not drawn) [Example 6, 9-Ethyl-14-hydroxy-6,6,13,15,16-pentamethyl-2,8-dioxabicyclo[10.4.0]hexadec-12,14,16-trien-7-one] | 23597 cpm | 1098 cpm | 386 cpm | 160997 cpm | 107497 cpm | 17458 cpm | 1148 cpm | 332 cpm | 177323 cpm | 110154 cpm | 25% | 73% | 42% | 35% | 1% | 45% | 72% | 50% | 29% | -1% | influence on the synthesis of the triglycerides (HepG2): practically absent; interference with the synthesis of cholesterol (HepG2): comparable to that of gemfibrozil and lower than that of the probucol; influence on the synthesis of the fatty acids and of the phospholipids (HepG2): practically show the same influence; activity as regards the synthesis of the esters of the cholesterol (HepG2): 60-75%; Area of the B-100 apolipoprotein peak (B-100 apolipoprotein; 0 minutes): 2.5 AU/mm; Area of the B-100 apolipoprotein peak (B-100 apolipoprotein; 60 minutes): 2.3 AU/mm; Area of the B-100 apolipoprotein peak (B-100 apolipoprotein; 90 minutes): 2.1 AU/mm; Area of the B-100 apolipoprotein peak (B-100 apolipoprotein; 120 minutes): 2.0 AU/mm; Area of the B-100 apolipoprotein peak (B-100 apolipoprotein; 150 minutes): 1.7 AU/mm; Area of the B-100 apolipoprotein peak (B-100 apolipoprotein; 180 minutes): 1.6 AU/mm; Area of the B-100 apolipoprotein peak (B-100 apolipoprotein; 360 minutes): 1.6 AU/mm
